From PubChem BioAssay AID330 (DTP/NCI, 2004)
“And” between values parts separate entries of the source, which are not always exact repeats. Equal entries are not always repeated. Toxic doses and inconclusive results are not listed. Rule for the calls: active = survival T/C of 150% or more; inactive = T/C below 125% in these data. Square brackets hold non-standard residues; d marks the D form. Peptide text beside a SMILES is read from it. Ac5c = NC1(C(=O)O)CCCC1

Tested on: P388 leukemia ip, CD2F1 mice, survival T/C
Test: NCI In Vivo Anticancer Drug Screen. Data for tumor model P388 Leukemia (intraperitoneal) in CD2F1 (CDF1) mice
Settings: endpoint: median survival time, higher = longer survival
Method in brief: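 Mice carrying the transplanted tumor received test compound or vehicle. Survival was recorded in each group, and the value is the treated-group measurement divided by that of the vehicle-treated control group.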

[1] = dose: 50.0 mg/kg/injection, schedule: Q01DX009 (ip), vehicle: saline with Tween-80
[2] = dose: 100.0 mg/kg/injection, schedule: Q01DX009 (ip), vehicle: saline with Tween-80
[3] = dose: 200.0 mg/kg/injection, schedule: Q01DX009 (ip), vehicle: saline with Tween-80
[4] = dose: 50.0 mg/kg/injection, schedule: Q01DX005 (ip), vehicle: Klucel (hydroxypropylcellulose) (HPC)
[5] = dose: 100.0 mg/kg/injection, schedule: Q01DX005 (ip), vehicle: Klucel (hydroxypropylcellulose) (HPC)
[6] = dose: 200.0 mg/kg/injection, schedule: Q01DX005 (ip), vehicle: Klucel (hydroxypropylcellulose) (HPC)
[7] = dose: 50.0 mg/kg/injection, schedule: Q01DX005 (ip), vehicle: saline
[8] = dose: 100.0 mg/kg/injection, schedule: Q01DX005 (ip), vehicle: saline
[9] = dose: 200.0 mg/kg/injection, schedule: Q01DX005 (ip), vehicle: saline
[10] = dose: 50.0 mg/kg/injection, schedule: Q01DX005 (ip), vehicle: saline with Tween-80
[11] = dose: 100.0 mg/kg/injection, schedule: Q01DX005 (ip), vehicle: saline with Tween-80
[12] = dose: 200.0 mg/kg/injection, schedule: Q01DX005 (ip), vehicle: saline with Tween-80
[13] = dose: 100.0 mg/kg/injection, schedule: Q04DX003 (ip), vehicle: saline with Tween-80
[14] = dose: 200.0 mg/kg/injection, schedule: Q04DX003 (ip), vehicle: saline with Tween-80
[15] = dose: 400.0 mg/kg/injection, schedule: Q04DX003 (ip), vehicle: saline with Tween-80
[16] = dose: 60.0 mg/kg/injection, schedule: Q01DX005 (ip), vehicle: saline with Tween-80
[17] = dose: 120.0 mg/kg/injection, schedule: Q01DX005 (ip), vehicle: saline with Tween-80
[18] = dose: 240.0 mg/kg/injection, schedule: Q01DX005 (ip), vehicle: saline with Tween-80
[19] = dose: 50.0 mg/kg/injection, schedule: Q01DX009 (ip), vehicle: saline
[20] = dose: 100.0 mg/kg/injection, schedule: Q01DX009 (ip), vehicle: saline
[21] = dose: 200.0 mg/kg/injection, schedule: Q01DX009 (ip), vehicle: saline
[22] = dose: 25.0 mg/kg/injection, schedule: Q01DX009 (ip), vehicle: saline with Tween-80
[23] = dose: 12.5 mg/kg/injection, schedule: Q01DX009 (ip), vehicle: saline with Tween-80

Measured: T/C

C=CC#N
inactive: [1] 99 % of control | [2] 95 % of control | [3] 90 % of control

CN1CCN(C(=O)N2CCCc3ccccc32)CC1
inactive: dose: 100.0 mg/kg/injection, schedule: Q04DX003 (ip), vehicle: saline 101 % of control | dose: 200.0 mg/kg/injection, schedule: Q04DX003 (ip), vehicle: saline 99 % of control

CC1(C)CC(=O)C2(OC3=C([Se]2)C(=O)CC(C)(C)C3)C(=O)C1
inactive: [1] 110 % of control | [2] 107 % of control | [3] 107 % of control

c1ccc2nc(N3CCCC3)c(N3CCCCC3)nc2c1
inactive: [4] 102 % of control | [5] 94 % of control | [6] 100 % of control

COC1CCC(O)C(C(=O)CN(C)C)C1 (stereo not given)
inactive: [7] 101 % of control | [8] 99 % of control | [9] 99 % of control

COc1cc2c(cc1OC)C13CCN4C=C5CCOC6CC(=O)N2C1C6C5CC43 (stereo not given)
inactive: dose: 15.0 mg/kg/injection, schedule: Q01DX005 (ip), vehicle: saline 97 % of control | dose: 30.0 mg/kg/injection, schedule: Q01DX005 (ip), vehicle: saline 98 % of control | dose: 60.0 mg/kg/injection, schedule: Q01DX005 (ip), vehicle: saline 100 % of control and 103 % of control

Cc1ccc(C(=O)C2C(=O)C(=O)OC2C2OC(=O)C(=O)C2C(=O)c2ccc(C)cc2)cc1 (stereo not given)
inactive: dose: 60.0 mg/kg/injection, schedule: Q01DX005 (ip), vehicle: saline + Tween-80 + alcohol 101 % of control | dose: 120.0 mg/kg/injection, schedule: Q01DX005 (ip), vehicle: saline + Tween-80 + alcohol 104 % of control | dose: 240.0 mg/kg/injection, schedule: Q01DX005 (ip), vehicle: saline + Tween-80 + alcohol 102 % of control

CCOCCOCCSCc1ccccn1
inactive: [4] 109 % of control | [5] 99 % of control | [6] 100 % of control

CCOC(=O)C(=O)C1CC(c2ccccc2)=NNC1=O (stereo not given)
inactive: [1] 99 % of control | [2] 103 % of control | [3] 96 % of control

CCCCCCCCCCCCCCCCCC(=O)NC1=C(Cl)C(=O)c2ccccc2C1=O
inactive: [10] 94 % of control | [11] 94 % of control | [12] 91 % of control

CC(=O)/C(C(=N)c1nc(C)c(C(=O)c2ccccc2)c(C(N)=O)n1)=C(/O)c1ccccc1
inactive: dose: 100.0 mg/kg/injection, schedule: Q01DX001 (ip), vehicle: Klucel (hydroxypropylcellulose) (HPC) 90 % of control | dose: 200.0 mg/kg/injection, schedule: Q01DX001 (ip), vehicle: Klucel (hydroxypropylcellulose) (HPC) 88 % of control | dose: 400.0 mg/kg/injection, schedule: Q01DX001 (ip), vehicle: Klucel (hydroxypropylcellulose) (HPC) 89 % of control

C=CCOc1ccccc1/C(Cl)=N/Nc1ccc([N+](=O)[O-])cc1[N+](=O)[O-]
inactive: [13] 97 % of control | [14] 94 % of control | [15] 89 % of control

COc1cc(/C(C)=C\CP(=O)(c2ccccc2)c2ccccc2)c(C(=O)O)cc1C
inactive: [10] 106 % of control | [11] 106 % of control | [12] 103 % of control

CCCSC(=O)Nc1ccc(Cc2ccc(NC(=O)SCCC)cc2)cc1
inactive: [16] 90 % of control | [17] 87 % of control | [18] 99 % of control

NCC(=O)NCC(=O)NC1(C(=O)O)CCCC1 (H-Gly-Gly-[Ac5c]-OH)
inactive: [7] 102 % of control and 103 % of control | [8] 110 % of control and 113 % of control | [9] 110 % of control | dose: 400.0 mg/kg/injection, schedule: Q01DX005 (ip), vehicle: saline 116 % of control and 87 % of control

CC1(C)OC1(C(=O)C=[N+]=[N-])c1ccccc1 (stereo not given)
inactive: dose: 25.0 mg/kg/injection, schedule: Q01DX005 (ip), vehicle: saline with Tween-80 96 % of control | [10] 99 % of control | [11] 96 % of control | [12] 103 % of control

O=C(Nc1ccccc1)Sc1nc2ccccc2s1
inactive: [19] 102 % of control | [20] 104 % of control | [21] 104 % of control

O=C1CSC(=O)N1c1ccc(F)cc1
inactive: dose: 6.25 mg/kg/injection, schedule: Q01DX009 (ip), vehicle: saline 98 % of control | dose: 12.5 mg/kg/injection, schedule: Q01DX009 (ip), vehicle: saline 113 % of control | dose: 25.0 mg/kg/injection, schedule: Q01DX009 (ip), vehicle: saline 114 % of control | [1] 106 % of control | [2] 104 % of control | [3] 87 % of control

O=C(N=C=S)c1ccccc1
inactive: dose: 100.0 mg/kg/injection, schedule: Q04DX003 (ip), vehicle: other 90 % of control | dose: 200.0 mg/kg/injection, schedule: Q04DX003 (ip), vehicle: other 100 % of control | dose: 400.0 mg/kg/injection, schedule: Q04DX003 (ip), vehicle: other 109 % of control

CC(C)(C)OC(=O)NC(CSCc1ccccc1)C(=O)ON1C(=O)CCC1=O (stereo not given)
inactive: [4] 100 % of control | [5] 98 % of control | [6] 94 % of control

Nc1nc(-c2ccccn2)cc2c(Cl)cccc12
inactive: [16] 86 % of control | [17] 115 % of control | [18] 97 % of control

N#CC(C#N)=C1Sc2nc3ccc([N+](=O)[O-])cc3nc2S1
inactive: [19] 109 % of control | [20] 90 % of control | [21] 118 % of control

CC(C)(C)OC(=O)C(Cc1cnc2nc(N)nc(N)c2n1)C(=O)OC(C)(C)C
inactive: dose: 3.13 mg/kg/injection, schedule: Q01DX009 (ip), vehicle: distilled water + Tween-80 103 % of control | dose: 6.25 mg/kg/injection, schedule: Q01DX009 (ip), vehicle: distilled water + Tween-80 98 % of control | dose: 12.5 mg/kg/injection, schedule: Q01DX009 (ip), vehicle: distilled water + Tween-80 95 % of control | dose: 25.0 mg/kg/injection, schedule: Q01DX009 (ip), vehicle: distilled water + Tween-80 95 % of control | dose: 50.0 mg/kg/injection, schedule: Q01DX009 (ip), vehicle: distilled water + Tween-80 93 % of control

CC(=O)CSc1ncnc2nc[nH]c12
inactive: [13] 100 % of control | [14] 113 % of control | [15] 109 % of control

O=C(O)CSCCCCCSCC(=O)O
inactive: [19] 105 % of control | [20] 106 % of control | [21] 106 % of control

N#CCC(O)(/C=C/c1ccccc1)c1ccccc1 (stereo not given)
inactive: dose: 100.0 mg/kg/injection, schedule: Q01DX009 (ip), vehicle: saline sonified 91 % of control | dose: 200.0 mg/kg/injection, schedule: Q01DX009 (ip), vehicle: saline sonified 86 % of control | dose: 400.0 mg/kg/injection, schedule: Q01DX009 (ip), vehicle: saline sonified 95 % of control

CCNc1nc(NC(C)C)nc(-c2ccncc2)n1
inactive: dose: 12.5 mg/kg/injection, schedule: Q01DX005 (ip), vehicle: Klucel (hydroxypropylcellulose) (HPC) 108 % of control | dose: 25.0 mg/kg/injection, schedule: Q01DX005 (ip), vehicle: Klucel (hydroxypropylcellulose) (HPC) 96 % of control | [4] 101 % of control | [5] 108 % of control

CCOC(=O)C(C)(Br)C(=O)OCC
inactive: [22] 118 % of control | [1] 109 % of control | [2] 109 % of control

COC(=N)CCNC(=O)C(O)C(O)C(=O)NCCC(=N)OC (stereo not given)
inactive: [19] 102 % of control | [20] 89 % of control | [21] 105 % of control

Nc1nc(N)c2nc3c(nc2n1)CCCCCCCCCC3
inactive: [23] 92 % of control | [22] 92 % of control | [1] 89 % of control | [2] 90 % of control

N#CC1Sc2ccccc2N1C(=O)c1ccccc1 (stereo not given)
inactive: [10] 103 % of control | [11] 100 % of control | [12] 98 % of control

O=C1Oc2ccccc2CC1C(=O)c1ccc([N+](=O)[O-])cc1 (stereo not given)
inactive: [10] 99 % of control | [11] 106 % of control | [12] 103 % of control

N#C/C(=C\c1ccccn1)c1ccc(Cl)cc1
inactive: dose: 18.75 mg/kg/injection, schedule: Q01DX009 (none), vehicle: saline 100 % of control | dose: 37.5 mg/kg/injection, schedule: Q01DX009 (none), vehicle: saline 99 % of control | dose: 75.0 mg/kg/injection, schedule: Q01DX009 (none), vehicle: saline 90 % of control

CCOC(=O)C1Cc2nc(-c3ccccc3)ncc2C1=O (stereo not given)
inactive: [23] 107 % of control | [22] 107 % of control | [1] 101 % of control
